# Assay results taken from patent publication US11432549B2, “Carbamoyl triazolinone based herbicide combinations and method of use” (Arysta LifeScience Corporation, priority 2009, dated 2022).
# Columns and labels:
# Format in all cases: in vivo
# Crabgrass sp. = experiment: Ex 5/7 greenhouse spray, bleaching/injury/density ratings
# Description: Containers were watered as needed based on species and water usage. The greenhouse was heated to keep temperatures above 50° F. (10° C.) and ventilated as needed to keep temperatures below 100° F. (38° C.). Typical daytime temperatures in the greenhouse were 80-90° F. (27-32° C.) and nighttime temperatures were between 50-60° F. (10-16° C.). The soil employed was Promix BX potting soil. Overall moisture conditions were normal and the closest weather station was on-site. Conditions and equipment employed in this Example are tabulated below in Tables 5-1 and 5-2.
# All containers were moved outdoors from the greenhouse and arranged in blocks by treatment for the herbicide applications. A single spray application was applied to each block containing four repetitions of each species for each treatment. Plants were then immediately returned to the greenhouse and irrigated with approximately ¼″ water 1-3 hrs after treatment with a hose end sprayer. Only the Poa plants were trimmed with scissors two days prior to treatment at a height of approximately 3 inches.
# Transplanted tillering Kentucky Bluegrass was 5 to 6 months old, transplanted Poa annua was 5 to 6 months old. Tall fescue was seeded into the crabgrass pots. St. Augustine plants (Floratam and Saphire) were shipped from Port St. Lucie, Fla. Only two replicates of Saphire St. Augustine grass were used due to plant availability.
# Referring to FIGS. 2A-B, 3A-C, 4A-C, and 5A-D, all ratings of injury or bleaching are based on a scale from 1 to 9. […] Any bleaching measurement 4 and above was considered unacceptable for desirable turf species. In injury measurements, 1 indicates no injury while 9 indicates a dead plant. Any injury measurement 4 and above was considered unacceptable for desirable turf species). Density correlates with percent cover where 1 indicates no grass while 9 indicates a full pot.
# Replications employed include 4, Untreated treatments: 1, Design: Randomized Complete Block, Treatment units: US standard, Treated plot size Width: 4 feet, Treated plot size Length: 4 feet, Application volume: 50 gal/ac, Mix size: 0.5562 liters, Mix overage: 100%, Format definitions: G-All7.DEF, G-All7.FRM.
# In evaluating synergism, the data from Example 5 above were converted to % of control. This was done based on the data provided on a 1-9 scale detailed in Example 5. Expected values were computed from the % of control data by the formula for expected control=[…], where A is the % of control value for herbicide A alone and B is the % of control value for herbicide B alone.
# [1] = system: Croton glandulosus (CROTON); experiment: Ex 4 pre-emergence, visual % damage; conditions: kg/ha or L/ha: Amicarbazone 1.50, Gesapax 5.00, Karmex 5.00, Provence 0.20, Sencor 3.50, alone
# Description: DINAMIC® (amicarbazone) in combination of various herbicides listed in Table 4-1 were tested for herbicidal activity.
# The herbicidal effect was observed by comparing the extent of Croton glandulosus (CROTON) treated with the compounds against that occurring in similar non-treated control. Herbicidal effect was visually assessed and recorded at 14, 23, 36, 49, 65 and 77 days after treatment (DAT). Damage by the herbicidal compositions was evaluated with reference to a scale of 0% to 100% in comparison with untreated control. 0% means no damage and 100% means complete destruction of the plants. […] The theoretical herbicidal effect index were calculated based on Colby and the values were indicated in bracket (2). Some of the observed herbicidal effects were the same as the theoretical hervicidal effects, which indicate additive effects. The underlined values in the table indicate that the observed weed killing is greater than calculated from the Colby formula and therefore indicates a synergistic weed killing effect or activity.
# Cyperus esculentus = experiment: Ex 2 pre-emergence, visual % damage; conditions: kg/ha: Amicarbazone 1.5, Clomazone/Hexazinone 2.0, mixture 1.5 + 2.0
# Description: DINAMIC® (amicarbazone) and Discover (clomazone 400 g/kg+hexazinone 100 g/kg) alone or in combination were applied pre-emergence in this study. The formulations for DINAMIC® and Discover were 700 g active ingredient a.i./kg and 500 g active ingredient a.i/kg respectively.
# The herbicidal effect was observed by comparing the extent of Cyperus esculentus treated with the compounds against that occurring in similar non-treated control. Herbicidal effect was visually assessed and recorded at 27, 43, 46, 60, 63, 77, 83, 97 and 124 days after treatment (DAT). Damage by the herbicidal compositions was evaluated with reference to a scale of 0% to 100% in comparison with untreated control. 0% means no damage and 100% means complete destruction of the plants.
# The theoretical herbicidal effect index were calculated based on Colby and the values were indicated in bracket ( ) in Table 2-1. The herbicidal mixtures (amicarbazone+(clomazone/hexazinone)) exert a greater herbicidal action than expected according to Colby on the basis of the observed effects of the individual components when used alone. […] The underlined values in the table indicate that the observed weed killing is greater than calculated from the Colby formula and therefore indicates a synergistic weed killing effect or activity.
# [2] = rating 1, 0.022 lbs ai/A (0.5 oz/A)
# [3] = rating 1, 0.13 lbs ai/A (3 oz/A)
# [4] = rating 2, 0.022 lbs ai/A (0.5 oz/A)
# [5] = rating 2, 0.13 lbs ai/A (3 oz/A)
# [6] = rating 3, 0.022 lbs ai/A (0.5 oz/A)
# [7] = rating 3, 0.13 lbs ai/A (3 oz/A)
# [8] = rating 4, 0.022 lbs ai/A (0.5 oz/A)
# [9] = rating 4, 0.13 lbs ai/A (3 oz/A)
# [10] = rating 5, 0.022 lbs ai/A (0.5 oz/A)
# [11] = rating 5, 0.13 lbs ai/A (3 oz/A)
# [12] = rating 6, 0.022 lbs ai/A (0.5 oz/A)
# [13] = rating 6, 0.13 lbs ai/A (3 oz/A)
smiles,measurement,setting,value
"CC(C)c1nn(C(=O)NC(C)(C)C)c(=O)n1N [Amicarbazone, 4-amino-5-isopropyl-2-(tert-butyl-aminocarbonyl)-2,4-dihydro-3H-1,2,4-triazol-3-one]",Crabgrass bleaching,Crabgrass sp.; [2],97
same,Crabgrass cover,Crabgrass sp.; [2],88
same,Crabgrass injury,Crabgrass sp.; [2],94
same,Crabgrass bleaching,Crabgrass sp.; [3],100
same,Crabgrass cover,Crabgrass sp.; [3],67
same,Crabgrass injury,Crabgrass sp.; [3],100
same,Crabgrass bleaching,Crabgrass sp.; [4],100
same,Crabgrass cover,Crabgrass sp.; [4],94
same,Crabgrass injury,Crabgrass sp.; [4],100
same,Crabgrass bleaching,Crabgrass sp.; [5],100
same,Crabgrass cover,Crabgrass sp.; [5],67
same,Crabgrass injury,Crabgrass sp.; [5],100
same,Crabgrass bleaching,Crabgrass sp.; [6],100
same,Crabgrass cover,Crabgrass sp.; [6],100
same,Crabgrass injury,Crabgrass sp.; [6],100
same,Crabgrass bleaching,Crabgrass sp.; [7],100
same,Crabgrass cover,Crabgrass sp.; [7],72
same,Crabgrass injury,Crabgrass sp.; [7],100
same,Crabgrass bleaching,Crabgrass sp.; [8],100
same,Crabgrass injury,Crabgrass sp.; [8],97
same,Crabgrass bleaching,Crabgrass sp.; [9],100
same,Crabgrass injury,Crabgrass sp.; [9],94
same,Crabgrass bleaching,Crabgrass sp.; [10],97
same,Crabgrass injury,Crabgrass sp.; [10],97
same,Crabgrass bleaching,Crabgrass sp.; [11],100
same,Crabgrass injury,Crabgrass sp.; [11],94
same,Crabgrass bleaching,Crabgrass sp.; [12],97
same,Crabgrass injury,Crabgrass sp.; [12],94
same,Crabgrass bleaching,Crabgrass sp.; [13],100
same,Crabgrass injury,Crabgrass sp.; [13],94
same,Crabgrass bleaching,"Crabgrass sp.; rating 7, 0.022 lbs ai/A (0.5 oz/A)",100
same,Crabgrass bleaching,"Crabgrass sp.; rating 7, 0.13 lbs ai/A (3 oz/A)",100
same,Crabgrass bleaching,"Crabgrass sp.; rating 8, 0.022 lbs ai/A (0.5 oz/A)",100
same,Crabgrass bleaching,"Crabgrass sp.; rating 8, 0.13 lbs ai/A (3 oz/A)",100
same,percentage control,[1]; 14 DAT,100%
same,percentage control,[1]; 23 DAT,99%
same,percentage control,[1]; 36 DAT,99%
same,percentage control,[1]; 49 DAT,99%
same,percentage control,[1]; 65 DAT,99%
same,percentage control,[1]; 77 DAT,99%
same,percentage control,"Cyperus esculentus; Trial 1, 43 DAT",40%
same,percentage control,"Cyperus esculentus; Trial 1, 63 DAT",62%
same,percentage control,"Cyperus esculentus; Trial 1, 77 DAT",65%
same,percentage control,"Cyperus esculentus; Trial 2, 27 DAT",37%
same,percentage control,"Cyperus esculentus; Trial 2, 46 DAT",53%
same,percentage control,"Cyperus esculentus; Trial 2, 60 DAT",57%
same,percentage control,"Cyperus esculentus; Trial 2, 83 DAT",68%
same,percentage control,"Cyperus esculentus; Trial 2, 97 DAT",53%
same,percentage control,"Cyperus esculentus; Trial 2, 124 DAT",23%
